In ChEMBL document CHEMBL3751764, “Synthesis and in vitro antiproliferative activity of novel pyrazolo[3,4-d]pyrimidine derivatives” (Medchemcomm, 2015):
Active and inactive are the calls of the source. The rule behind the calls is not given here.

What was measured:
[1] = molecular target: T1, Vascular endothelial growth factor receptor 2 (Homo sapiens, UniProt P35968); test: Inhibition of human VEGFR2 at 10 uM after 20 to 40 mins by liquid scintillation counting analysis in presence of […]; set-up: scale not given: the % may be the effect or the level left
T1 sequence (P35968 whole entry): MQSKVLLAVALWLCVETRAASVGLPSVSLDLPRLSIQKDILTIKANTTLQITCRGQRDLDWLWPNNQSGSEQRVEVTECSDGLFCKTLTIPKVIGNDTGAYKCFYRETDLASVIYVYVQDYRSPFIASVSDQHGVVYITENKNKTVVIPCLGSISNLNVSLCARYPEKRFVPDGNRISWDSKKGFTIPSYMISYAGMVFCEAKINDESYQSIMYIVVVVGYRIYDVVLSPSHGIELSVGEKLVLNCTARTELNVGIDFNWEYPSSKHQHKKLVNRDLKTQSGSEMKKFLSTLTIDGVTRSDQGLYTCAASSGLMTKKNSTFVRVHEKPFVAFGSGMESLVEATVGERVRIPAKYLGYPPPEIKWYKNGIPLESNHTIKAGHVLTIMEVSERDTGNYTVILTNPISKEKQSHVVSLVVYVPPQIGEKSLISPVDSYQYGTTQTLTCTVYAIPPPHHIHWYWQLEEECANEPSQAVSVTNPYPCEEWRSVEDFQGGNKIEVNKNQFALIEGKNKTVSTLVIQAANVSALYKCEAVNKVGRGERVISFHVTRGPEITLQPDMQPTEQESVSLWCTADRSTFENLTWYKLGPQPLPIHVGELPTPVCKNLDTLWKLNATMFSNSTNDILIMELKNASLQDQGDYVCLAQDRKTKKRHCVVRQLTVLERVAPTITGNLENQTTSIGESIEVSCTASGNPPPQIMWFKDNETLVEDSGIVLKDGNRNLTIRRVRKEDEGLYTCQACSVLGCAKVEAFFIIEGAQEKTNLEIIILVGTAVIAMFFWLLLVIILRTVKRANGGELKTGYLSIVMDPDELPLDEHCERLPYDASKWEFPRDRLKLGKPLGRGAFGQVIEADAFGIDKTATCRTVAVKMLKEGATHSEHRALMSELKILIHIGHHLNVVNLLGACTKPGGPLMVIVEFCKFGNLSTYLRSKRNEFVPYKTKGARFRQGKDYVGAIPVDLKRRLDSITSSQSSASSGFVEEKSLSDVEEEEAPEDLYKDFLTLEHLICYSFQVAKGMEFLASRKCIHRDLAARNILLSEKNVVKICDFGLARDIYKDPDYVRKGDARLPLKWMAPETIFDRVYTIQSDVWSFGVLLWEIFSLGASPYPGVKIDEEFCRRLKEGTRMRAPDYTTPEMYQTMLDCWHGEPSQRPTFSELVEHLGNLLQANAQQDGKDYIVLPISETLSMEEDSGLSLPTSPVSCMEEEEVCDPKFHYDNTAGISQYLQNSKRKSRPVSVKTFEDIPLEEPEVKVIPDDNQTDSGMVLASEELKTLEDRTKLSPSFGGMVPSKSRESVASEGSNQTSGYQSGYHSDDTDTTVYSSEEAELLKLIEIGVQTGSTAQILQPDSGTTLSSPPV

MCF7 = test: Cytotoxicity against human MCF7 cells after 72 hrs by SRB assay; type: functional, cell-based; details: MCF7, 72 h
[2] = Cytotoxicity against human HL60 cells; type: functional, cell-based; details: HL-60
[3] = molecular target: T1, Vascular endothelial growth factor receptor 2; test: Inhibition of VEGFR2 (unknown origin) using poly(Glu,Ala,Tyr) (6:3:1) as substrate after 20 mins by ELISA
[4] = molecular target: Mast/stem cell growth factor receptor Kit (Homo sapiens, UniProt P10721); test: Inhibition of N-terminal GST-tagged recombinant kit (unknown origin) using poly(Glu:Tyr) as substrate by ELISA-based method
Mast/stem cell growth factor receptor Kit, sequence (P10721 whole entry): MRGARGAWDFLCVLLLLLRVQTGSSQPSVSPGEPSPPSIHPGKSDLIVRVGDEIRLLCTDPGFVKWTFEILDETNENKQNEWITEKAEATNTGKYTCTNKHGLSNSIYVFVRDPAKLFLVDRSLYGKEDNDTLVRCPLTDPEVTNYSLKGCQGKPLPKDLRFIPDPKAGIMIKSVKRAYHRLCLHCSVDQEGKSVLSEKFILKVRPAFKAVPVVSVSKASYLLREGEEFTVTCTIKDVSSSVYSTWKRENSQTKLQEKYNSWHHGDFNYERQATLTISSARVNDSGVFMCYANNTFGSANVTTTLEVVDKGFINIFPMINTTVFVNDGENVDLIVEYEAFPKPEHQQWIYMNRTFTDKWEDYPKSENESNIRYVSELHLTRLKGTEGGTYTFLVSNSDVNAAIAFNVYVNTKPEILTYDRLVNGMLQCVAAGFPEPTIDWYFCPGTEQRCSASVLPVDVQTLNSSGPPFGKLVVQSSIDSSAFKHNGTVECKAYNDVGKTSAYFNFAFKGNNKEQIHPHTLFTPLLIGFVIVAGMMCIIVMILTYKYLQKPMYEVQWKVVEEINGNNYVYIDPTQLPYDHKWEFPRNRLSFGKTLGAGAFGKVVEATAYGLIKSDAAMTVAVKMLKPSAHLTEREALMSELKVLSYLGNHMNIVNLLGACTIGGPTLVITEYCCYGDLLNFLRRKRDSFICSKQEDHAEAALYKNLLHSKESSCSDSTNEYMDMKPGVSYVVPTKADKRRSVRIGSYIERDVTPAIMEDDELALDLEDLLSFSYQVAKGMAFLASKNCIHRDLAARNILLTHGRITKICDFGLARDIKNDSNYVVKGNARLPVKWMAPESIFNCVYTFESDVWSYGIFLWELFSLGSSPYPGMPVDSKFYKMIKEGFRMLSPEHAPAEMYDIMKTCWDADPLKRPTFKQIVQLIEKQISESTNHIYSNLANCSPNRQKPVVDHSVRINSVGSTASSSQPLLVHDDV

Aurora kinase A = Aurora kinase A (Homo sapiens, UniProt O14965); test: Inhibition of Aurora A (unknown origin) using poly(Glu:Tyr) as substrate by ELISA-based method
Aurora kinase A, sequence (O14965 whole entry): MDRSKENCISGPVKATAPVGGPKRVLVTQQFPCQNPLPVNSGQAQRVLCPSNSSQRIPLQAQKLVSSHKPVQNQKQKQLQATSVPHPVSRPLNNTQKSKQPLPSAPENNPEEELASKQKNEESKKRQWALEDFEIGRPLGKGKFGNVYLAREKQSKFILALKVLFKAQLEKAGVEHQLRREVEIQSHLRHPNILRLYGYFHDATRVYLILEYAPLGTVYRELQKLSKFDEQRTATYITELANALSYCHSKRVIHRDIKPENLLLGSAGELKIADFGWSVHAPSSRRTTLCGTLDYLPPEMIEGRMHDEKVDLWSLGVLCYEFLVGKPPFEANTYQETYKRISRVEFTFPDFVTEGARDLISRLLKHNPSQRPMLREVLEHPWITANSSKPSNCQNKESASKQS

[5] = molecular target: Cyclin-dependent kinase 1 (Homo sapiens, UniProt P06493); test: Inhibition of CDK1 (unknown origin) using […] as substrate after 60 mins by TR-FRET assay
Cyclin-dependent kinase 1, sequence (P06493 whole entry): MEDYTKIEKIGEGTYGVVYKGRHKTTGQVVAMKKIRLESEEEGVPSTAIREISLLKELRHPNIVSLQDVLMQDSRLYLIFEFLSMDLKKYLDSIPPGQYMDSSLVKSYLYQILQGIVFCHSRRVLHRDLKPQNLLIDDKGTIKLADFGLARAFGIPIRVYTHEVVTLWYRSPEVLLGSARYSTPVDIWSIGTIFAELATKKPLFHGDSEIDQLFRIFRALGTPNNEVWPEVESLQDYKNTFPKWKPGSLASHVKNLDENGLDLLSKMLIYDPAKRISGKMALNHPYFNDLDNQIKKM

[6] = molecular target: Epidermal growth factor receptor (Homo sapiens) (UniProt P00533); test: Inhibition of human EGFR at 10 uM after 20 to 40 mins by liquid scintillation counting analysis in presence of […]
[7] = molecular target: T1, Vascular endothelial growth factor receptor 2; test: Inhibition of VEGFR2 (unknown origin) autophosphorylation after 2 hrs by cell-based assay
[8] = molecular target: Aurora kinase A (Homo sapiens) (UniProt O14965); test: Inhibition of human aurora A at 10 uM after 20 to 40 mins by liquid scintillation counting analysis in presence of […]
Aurora kinase A (Homo sapiens), sequence (O14965 whole entry): as the sequence (O14965 whole entry) above

[9] = molecular target: T1, Vascular endothelial growth factor receptor 2; test: Inhibition of VEGFR2 (unknown origin) using poly(Glu:Tyr) as substrate by ELISA-based method
[10] = molecular target: Receptor-type tyrosine-protein kinase FLT3 (Homo sapiens, UniProt P36888); test: Inhibition of Flt3 (unknown origin) using poly(Glu:Tyr) as substrate by ELISA-based method
Receptor-type tyrosine-protein kinase FLT3, sequence (P36888 whole entry): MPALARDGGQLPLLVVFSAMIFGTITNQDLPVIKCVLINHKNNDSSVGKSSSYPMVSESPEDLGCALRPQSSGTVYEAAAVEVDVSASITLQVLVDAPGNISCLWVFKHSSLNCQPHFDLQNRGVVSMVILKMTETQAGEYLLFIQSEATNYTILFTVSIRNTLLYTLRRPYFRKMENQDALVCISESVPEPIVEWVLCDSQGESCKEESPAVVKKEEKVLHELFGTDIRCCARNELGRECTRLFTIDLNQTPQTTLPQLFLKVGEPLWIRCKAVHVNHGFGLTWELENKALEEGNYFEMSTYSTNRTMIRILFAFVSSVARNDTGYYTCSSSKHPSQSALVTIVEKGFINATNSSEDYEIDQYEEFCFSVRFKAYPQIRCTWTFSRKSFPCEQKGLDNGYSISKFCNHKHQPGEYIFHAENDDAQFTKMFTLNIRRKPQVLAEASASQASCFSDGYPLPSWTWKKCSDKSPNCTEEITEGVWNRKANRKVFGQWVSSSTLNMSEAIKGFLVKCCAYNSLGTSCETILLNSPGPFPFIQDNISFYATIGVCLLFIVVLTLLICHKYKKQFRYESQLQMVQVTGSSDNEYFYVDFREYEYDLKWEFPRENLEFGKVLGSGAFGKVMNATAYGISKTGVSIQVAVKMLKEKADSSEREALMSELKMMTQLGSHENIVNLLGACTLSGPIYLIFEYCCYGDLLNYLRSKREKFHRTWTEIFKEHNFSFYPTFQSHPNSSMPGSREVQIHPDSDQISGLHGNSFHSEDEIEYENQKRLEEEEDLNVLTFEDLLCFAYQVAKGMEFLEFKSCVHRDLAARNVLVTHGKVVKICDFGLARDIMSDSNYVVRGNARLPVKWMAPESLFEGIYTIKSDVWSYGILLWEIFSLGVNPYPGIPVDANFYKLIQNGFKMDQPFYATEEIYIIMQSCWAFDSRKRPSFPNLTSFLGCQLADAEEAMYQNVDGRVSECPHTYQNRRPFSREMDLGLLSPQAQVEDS

Q: With O=c1sc2cc(Nc3ncnc4c3cnn4-c3ccccc3)ccc2n1Cc1ccc(Cl)cc1Cl as the molecule, how does the Activity [1] read?
A: Its Activity is -5%.

Q: And the IC50 (MCF7)?
A: The IC50 was 44 µM.

Q: With N=c1c2cnn(-c3ccccc3)c2ncn1-c1ccc(-c2ccc(C(F)(F)F)cc2)s1 as the molecule, how does the IC50 [2] read?
A: Its IC50 is 0.21 µM.

Q: With O=c1sc2cc(Nc3ncnc4c3cnn4-c3ccccc3)ccc2n1Cc1cccc(Br)c1 as the molecule, how does the Activity [1] read?
A: Its Activity is 2%.

Q: What about the IC50 (MCF7) of the same molecule?
A: Its IC50 is 46.1 µM.

Q: What does the source list for O=C(Nc1ccc(Nc2ncnc3c2cnn3-c2ccccc2)cc1)Nc1ccccc1Cl?
A: Activity [1]: -5%; IC50 (MCF7): 55.1 µM

Q: With Clc1ccc(COc2ccc(Nc3ncnc4c3cnn4-c3ccccc3)cc2)cc1 as the molecule, how does the IC50 (MCF7) read?
A: The IC50 was 4.36 µM.

Q: Which IC50 (MCF7) does the source give for O=C(Nc1ccc(Cl)c(C(F)(F)F)c1)c1ccc(Nc2ncnc3c2cnn3-c2ccc(Cl)cc2)cc1 here?
A: The IC50 was 4.92 µM.

Q: Which IC50 (MCF7) does the source give for Cc1cc2nc(Nc3ncnc4c3cnn4-c3ccccc3)sc2cc1C here?
A: The IC50 was > 100 µM.

Q: With Cc1cc(F)c(Nc2ncnc3cc(OCc4ccccc4)ccc23)cc1O as the molecule, how does the IC50 [3] read?
A: Its IC50 is < 0.002 µM.

Q: With Clc1ccc(-n2ncc3c(Nc4nc5ccc(Cl)cc5s4)ncnc32)cc1 as the molecule, how does the IC50 (MCF7) read?
A: Its IC50 is 85.6 µM.

Q: With Clc1ccc2nc(Nc3ncnc4c3cnn4-c3ccccc3)sc2c1 as the molecule, how does the IC50 (MCF7) read?
A: Its IC50 is > 100 µM.

Q: For O=c1sc2cc(Nc3ncnc4c3cnn4-c3ccccc3)ccc2n1Cc1ccc(Cl)c(Cl)c1, which Activity [1] is on record?
A: The Activity was 1%.

Q: And the IC50 (MCF7)?
A: The IC50 was 1.6 µM.

Q: For O=c1sc2cc(Nc3ncnc4c3cnn4-c3ccc(Cl)cc3)ccc2n1Cc1ccc(Cl)cc1Cl, which Activity [1] is on record?
A: Its Activity is 1%.

Q: What about the IC50 (MCF7) of the same molecule?
A: The IC50 was > 100 µM.

Q: With O=C(Nc1ccc(OC(F)(F)F)cc1)c1sccc1NCc1ccnc2ccccc12 [OSI-930] as the molecule, how does the IC50 [4] read?
A: The IC50 was 0.08 µM.

Q: With CC(C)n1ncc2cnc(Nc3cc(C(N)=O)n(C)c3)nc21 as the molecule, how does the IC50 (Aurora kinase A) read?
A: The IC50 was 0.017 µM.

Q: And the IC50 [5]?
A: Its IC50 is 0.024 µM.

Q: For O=C(Nc1cccc(Cl)c1)c1ccc(Nc2ncnc3c2cnn3-c2ccccc2)cc1, which Activity [1] is on record?
A: Its Activity is 2%.

Q: And the inhibition [6]?
A: The inhibition was “inactive”.

Q: What about the IC50 (MCF7) of the same molecule?
A: Its IC50 is 1.12 µM.

Q: With Cc1ccc(C(=O)Nc2cccc(C(F)(F)F)c2)cc1Nc1nc(-c2cccnc2)nc2c1cnn2C as the molecule, how does the EC50 [7] read?
A: Its EC50 is 4.2 µM.

Q: With O=C(Nc1ccc(Nc2ncnc3c2cnn3-c2ccccc2)cc1)Nc1cccc(Cl)c1 as the molecule, how does the Activity [1] read?
A: The Activity was -3%.

Q: What about the inhibition [8] of the same molecule?
A: Its inhibition is “inactive”.

Q: And the IC50 (MCF7)?
A: Its IC50 is 4.2 µM.

Q: With O=C(Nc1ccc(Cl)c(C(F)(F)F)c1)c1ccc(Nc2ncnc3c2cnn3-c2ccccc2)cc1 as the molecule, how does the IC50 (MCF7) read?
A: Its IC50 is 75.9 µM.

Q: Which Activity [1] does the source give for O=C(Nc1ccccc1Cl)c1ccc(Nc2ncnc3c2cnn3-c2ccc(Cl)cc2)cc1 here?
A: The Activity was -8%.

Q: And the IC50 (MCF7)?
A: The IC50 was > 100 µM.

Q: With O=C(Nc1ccc(Nc2ncnc3c2cnn3-c2ccc(Cl)cc2)cc1)Nc1ccccc1Cl as the molecule, how does the Activity [1] read?
A: The Activity was 1%.

Q: And the IC50 (MCF7)?
A: The IC50 was 9.05 µM.

Q: For O=C(Nc1ccc(Oc2ncnc3[nH]ncc23)cc1)Nc1ccc(Cl)c(C(F)(F)F)c1, which IC50 [9] is on record?
A: The IC50 was 2.25 µM.

Q: And the IC50 [10]?
A: Its IC50 is 0.004 µM.

Q: What does the source list for O=C(Nc1ccccc1)Nc1ccc(Oc2ncnc3c2cnn3-c2ccc(Cl)cc2)cc1?
A: Activity [1]: -3%; IC50 (MCF7): 82.5 µM

Q: With Cc1ccccc1NC(=O)Nc1ccc(Nc2ncnc3c2cnn3-c2ccc(Cl)cc2)cc1 as the molecule, how does the Activity [1] read?
A: Its Activity is 3%.

Q: And the IC50 (MCF7)?
A: Its IC50 is 3.15 µM.

Q: Which results are given for O=C(NC1CCCCC1)c1ccc(Nc2ncnc3c2cnn3-c2ccc(Cl)cc2)cc1?
A: Activity [1]: -4%; IC50 (MCF7): > 100 µM

Q: Which Activity [1] does the source give for O=C(Nc1ccc(Nc2ncnc3c2cnn3-c2ccccc2)cc1)Nc1cccc(Br)c1 here?
A: The Activity was -3%.

Q: And the IC50 (MCF7)?
A: The IC50 was 36.3 µM.

Q: Which IC50 (MCF7) does the source give for Clc1ccc(COc2ccc(Nc3ncnc4c3cnn4-c3ccc(Cl)cc3)cc2)cc1 here?
A: Its IC50 is > 100 µM.

Q: Which Activity [1] does the source give for O=C(Nc1ccccc1)Nc1ccc(Oc2ncnc3c2cnn3-c2ccccc2)cc1 here?
A: Its Activity is 1%.

Q: And the IC50 (MCF7)?
A: The IC50 was > 100 µM.
